# Data published in patent US20110171675A1, “FRET-BASED MEMBRANE-TYPE 1 MATRIX METALLOPROTEINASE BIOSENSOR AND METHODS FOR USING THE SAME” (priority 2008, published 2011).
# Legend:
# [1] = system: Src; test: PDGF-induced Src activation in MEFs (Src FRET biosensor); assay type: cell-based, mouse
# Description: Unexpectedly, PDGF-induced Src activation was global without a clear spatial pattern at subcellular levels, even when MEFs were constrained on fibronectin stripes to have directional migration.
# [2] = system: Src; test: VEGF-induced membrane Src activation in live endothelial cells (FRET); assay type: cell-based; settings: YPet-based membrane-targeted Src biosensor
# Description: Both VEGF and Src are critical for angiogenesis. […] However, VEGF-induced Src activation was difficult to detect using an ECFP/Citrine-based biosensor. […] Thus, the YPet-based Src biosensor was targeted to the plasma membrane by fusing a prenylation substrate sequence (Lys-Lys-Lys-Lys-Lys-Lys-Ser-Lys-Thr-Lys-Cys-Val-Ile-Met; SEQ ID NO:9) from KRas to visualize the VEGF-induced membrane Src activation in live endothelial cells.
# [3] = system: Rac; test: PDGF-induced Rac activity in MEFs (Rac FRET biosensor); assay type: cell-based, mouse
# Description: The improved ECFP/YPet biosensor was further used in the analysis of molecular hierarchy in cell migration. […] However, the spatiotemporal interrelationship between Src and Rac activation has not been shown. Thus, the improved Rac biosensor was employed to visualize the spatiotemporal Rac activity during cell migration in response to platelet-derived growth factor (PDGF). The role of Src in regulating this Rac activation was also investigated. […] PDGF induced a strong Rac activation at membrane ruffles and a moderate overall activation of Rac in the whole cell. […] To further characterize the spatiotemporal Rac activity, MEF cells transfected with the Rac biosensor were seeded atop fibronectin-coated stripes (10 μm width) to constrain the cell adhesion and control the direction of cell migration. […] Again, the inhibition of Src by PP1 or Src/Yes/Fyn triple-knockout blocked the polarized Rac activity before and after PDGF stimulation.
Compound,PDGF-induced Src activation ([1]; MEF cells transfected with RacV12),"PDGF-induced Src activation ([1]; MEFs, disruption of actin filaments)",Effect of inhibitor on VEGF-induced FRET response [2],Polarized Rac activity before and after PDGF stimulation ([3]; MEFs on fibronectin-coated stripes (10 μm width)),"Basal and PDGF-induced Rac activity ([3]; MEFs pretreated with inhibitor, cultured on fibronectin)"
C=C1[C@@H](C)[C@H]2[C@H](Cc3ccccc3)NC(=O)[C@]23[C@H](OC(C)=O)/C=C/[C@@](C)(O)C(=O)[C@@H](C)C/C=C/[C@H]3[C@@H]1O [CytoD],inhibited,blocked,,,
Cc1ccc(-c2nn(C(C)(C)C)c3ncnc(N)c23)cc1 [PP1],,,abolished,blocked,significantly inhibited
CC(C)c1cc(/C=C(\C#N)C(=O)NCCCc2ccccc2)cc(C(C)C)c1O [SU1498],,,abolished,,
